Assay results: patent US5821046A, “RNA oligonucleotides that bind HIV tat protein” (RiboTargets Holdings PLC, priority 1990, dated 1998)
Where two headings read alike, the source gives them in different places.

How the values were obtained:
[1] = tested on: tat-dependent promoter activity of viral LTR carrying the TAR sequence; assay: trans-activation CAT assay, test plasmids transfected into HeLa/C63/tat cells; type: cell-based, HeLa/C63/tat (clone 9) cells
Source text: (§1) If tat binding to TAR is necessary for trans-activation, then viral LTRs carrying TAR sequences with low affinities for tat should always have reduced tat-dependent promoter activity in vivo. Site-directed mutagenesis experiments on TAR have shown that trans-activation requires sequences in both the U-rich bulge (10, 11) and the loop sequence (12, 27, 28). These observations have now been extended, using TAR mutations with known affinities for tat in transfection experiments, the results of which are shown in FIG. 8. The experiments used either HeLa cells (FIG. 8a-d) or a constitutive producer of tat, HeLa/C63/tat cells (FIG. 8e-f).
(§2) The TAR sequences depicted in FIG. 3 [SEQ ID NO: 1-11] were introduced into a test plasmid, pD5-3-3, which carries a LTR and approximately 300 bases of 5' flanking sequences derived from the infectious proviral clone NL4 (29). The bacterial chloramphenicol acetyltransferase (CAT) gene and SV40 intron and terminator sequence from pSV2-CAT (30) was inserted downstream of TAR by cloning into the HindIII site at +77. Trans-activation was measured either by cotransfection of HeLa cells with the test plasmids and the tat expression plasmid pC63-4-1 (6) (panels a-d in FIG. 10), or by transfection of the test plasmids alone into HeLa/C63/tat (clone 9) cells (panels e-h).
In these experiments, cells were plated at a density of 3×10^5 in a T25 flask and transfected by the calcium phosphate method (31). Transfections in HeLa cells used 8.0 ug of test plasmid, 1.0 to 10 ug of pC63-4-1 plasmid and 10 ug of calf thymus carrier DNA. Transfections of the HeLa/C63/tat (clone 9) cells used 0.5 to 10 ug of test plasmid and 10 ug of calf thymus carrier DNA. The HeLa/C63/tat (clone 9) cells were prepared by infection of HeLa cells with helper-free amphotrophic C63-4-1 MoMuLV-tat virus. Following selection in 2mg/ml G418 individual clones were expanded and the expression of tat protein confirmed by immunoprecipitation with monoclonal antibodies to tat (6). Cell extracts were prepared at 48h post-transfection in 150 ul lysis buffer (0.2% NP40, 20 mM Tris pH 8.0, 4mM MgCl2), heat inactivated at 65° C. for 10 min and stored at -20° C. To ensure that CAT activity was measured in the linear range of the assay (30), at less than 50% conversion of chloramphenicol in its acetylated forms, for each transfection, three different aliquots containing from 5 to 70 ul extract were assayed for CAT activity. Reactions contained extract diluted with lysis buffer to a final volume of 70 ul, 10 ul AcCoA (2.5mg/ml in lysis buffer); 0.5 ul (14C) - chloramphenicol (60 mCi/m mol) and were incubated for 45 min at 37° C. Reaction products were extracted with ethylacetate, separated by thin layer chromatography on silica plates and bands were counted in scintillation fluid to calculate the chloramphenicol conversion efficiency per 10 ul of extract.

HIV-1 tat protein = assay: competition filter binding assay, mutant TAR transcripts against labelled HIV-1 TAR RNA (FIG. 7, Table 1); conditions: 20 nM TAR RNA, 40 nM tat protein; for IC50: read-out: D1/2 (concentration of competitor RNA that reduces binding of HIV-1 tat to HIV-1 TAR RNA to 50%)
Description: Binding reactions (500 ul) were set up on ice and contained 80 pM ^32 P-labeled TAR RNA (17,600 dpm, 200 uCi/n mol) and unlabeled TAR RNA to give a final concentration of 20 nM, 0.5 ug calf thymus DNA, 0.2 ug yeast tRNA, 40 units RNAsin (Promega), 50 mM Tris HCl and 20 mM KCl. After addition of competitor RNA, binding was initiated by addition of HIV-1 tat protein to a final concentration of 400 ng/ml (40 nM). The binding reaction mixtures were then filtered under reduced pressure through pre-washed nitrocellulose filters (Millipore 0.45 uM pore size) and filters were dried and counted by liquid scintillation counting.
The fraction of^32 P-labeled TAR RNA bound was plotted against the final concentration of competitor RNA. In these experiments reactions included 20 nM TAR and 40 nM tat protein and increasing amounts of unlabeled competitor RNA from 40 nm to 6 uM. […] In theory, 40 nM tat will bind 50% of the input TAR RNA (D1/2) when the total TAR RNA concentration is 56 nM.
For competition experiments, binding reactions (500 ul) were set up on ice and contained 80 pM ^32 P-labeled TAR RNA (17,600 dpm, 200 uCi/n mol) and unlabeled TAR RNA to give a final concentration of 20 nM, 0.5 ug calf thymus DNA, 0.2 ug yeast TRNA, 40 units RNAsin (Promega), 50 mM Tris-HCl pH 7.9 and 20 mM KCl. After addition of 0 to 6 uM competitor RNA, binding was initiated by addition of HIV- 1 tat protein to a final concentration of 400 ng/mi (40 nM). The binding reaction mixtures were then filtered under reduced pressure through pre-washed nitrocellulose filters (Millipore 0.45 u pore size) and filters were dried and counted by liquid scintillation counting.
KRel is the ratio of the D1/2 values for HIV-1 TAR and competitor RNA.

tat protein = assay: competition filter binding assay with chemically synthesized RNA (Table 4); parameters: species or system HIV-1; conditions: for IC50: 40 nM tat, read-out: D1/2
Description: Competition binding reactions (0.5ml) in TK buffer (50 mM Tris.HCl(pH7.9 at 0.5M and 22° G), 20 mM KCl ) included 10nM ^32 p labeled 59-mer (ca. 20,000 cpm) , 40nM tat protein, 5 ug/ml calf thymus DNA, 2 ug/ml yeast tRNA, 40 units of RNAsin (Promega) and varying concentrations (0-300 nM) of unlabeled competitor RNA (59-mer [SEQ ID NO: 1; ], 29-mer [SEQ ID NO: 12] or preannealed (slow cooled from 90° C.) 14-mer [SEQ ID NO: 14; nucleotides 2-15] and 17-mer [SEQ ID NO: 13; nucleotides 1- 17]). Binding was allowed to take place for 2-15 minutes on ice and each reaction was filtered through a twice prewashed (0.6 ml of ice-cold TK buffer) Millipore GS filter (2.5 cm disks, 0.22 um pore) and the filter washed with TK buffer (0.6 ml). Dried filters were counted by liquid scintillation. Results were plotted on a graph (FIG. 19) showing counts retained on the filter versus the concentration of competitor RNA added.
Competition binding reactions (0.5 ml) in TK buffer included 10 nM duplex formed from ^32 P-labeled and unlabeled 29-mer (ca. 20,000 cpm) or 10 nM duplex formed from ^32 P-labeled and unlabeled 17-mer annealed to unlabeled 14-mer, 40 nM tat protein, 5 ug/ml calf thymus DNA, 2 ug/ml yeast tRNA and varying concentrations (0-120 nM) of unlabeled competitor RNA (29-mer or modified 29-mer (FIG. 21), or 17-mer +14-mer duplex or modified 7-mer +14-mer duplex (22, 23 and 24) and were carried out as described above.
Competition binding reactions (0-5 ml) in TK buffer included 10 nM duplex formed from ^32 P-labelled (ca. 20,000 cpm) and unlabelled 18-mer [SEQ ID NO: 13] annealed to unlabelled 15-mer [SEQ ID NO: 14], 40 nM tat protein, 5 ug/ml calf thymus DNA, 2 ug/ml yeast TRNA and varying concentrations (0-120 nM) of unlabelled competitor RNA (59-mer [SEQ ID NO: 1] or 18-mer [SEQ ID NO: 13]+15-mer [SEQ ID NO: 14] duplex, or modified 18-mer [SEQ ID NO: […]

[2] = tested on: transactivation by tat (CAT reporter plasmid D5-3-3); assay: transactivation in vivo, altered TAR sequences in CAT reporter plasmid D5-3-3 (Tables 2 and 3); type: cell-based
Description: as §2
In these experiments, cells were plated at a density of 3×10^5 in a T25 flask and transfected by the calcium phosphate method (31). […] To ensure that CAT activity was measured in the linear range of the assay (30), at less than 50% conversion of chloramphenicol in its acetylated forms, for each transfection, three different aliquots containing from 5 to 70 ul extract were assayed for CAT activity. […] Reaction products were extracted with ethylacetate, separated by thin layer chromatography on silica plates and bands were counted in scintillation fluid to calculate the chloramphenicol conversion efficiency per 10 ul of extract. […]

[3] = tested on: tat-dependent promoter activity of viral LTR carrying the TAR sequence; assay: trans-activation CAT assay, HeLa cells cotransfected with LTR-CAT test plasmid and tat expression plasmid; type: cell-based; conditions: HeLa cells cotransfected with tat plasmid
Source text: as §1
as §2, with “e-h). […]” for “e-h).”

Substance: ASS: anti-sense lower stem, sense upper stem and loop sequences (GGGUUCCCUAGUUAGACCAGAUUUGAGCCUGGGAGCUCUCUGGCUAACCAGAGAGACCC; chemistry not given here)
- CAT expression [1]: wild-type expression levels

Substance: SSA: sense stem, antisense loop sequence (GGGUCUCUCUGGUUAGACCAGAUUUGAGCUCCCAGGCUCUCUGGCUAACUAGGGAACCC; chemistry not given here)
- CAT expression [1]: no significant increase over basal levels of CAT expression

Substance: G to U (loop): TAR RNA in which residues 32-34 are changed to uridine (U) (GGGUCUCUCUGGUUAGACCAGAUUUGAGCCUUUUAGCUCUCUGGCUAACUAGGGAACCC; RNA, backbone not given here)
- KRel (ratio of D1/2 values for HIV-1 TAR and competitor RNA) (HIV-1 tat protein): 0.97
- IC50 (HIV-1 tat protein): 66 nM
- CAT expression [1]: significant CAT activity observed at high plasmid concentrations

Substance: SAS: anti-sense upper stem flanked by sense lower stem and loop sequences (GGGUCUCUCUGGUUAGCCAGAGAGCCUGGGAGCUCAAAUCUGGUCUAACUAGGGAACCC; chemistry not given here)
- CAT expression [1]: no significant increase over basal levels of CAT expression

Substance: delta U (bulge): TAR RNA in which residues 23-25 are deleted (GGGUCUCUCUGGUUAGACCAGAGAGCCUGGGAGCUCUCUGGCUAACUAGGGAACCC; RNA, backbone not given here)
- KRel (ratio of D1/2 values for HIV-1 TAR and competitor RNA) (HIV-1 tat protein): 0.15
- IC50 (HIV-1 tat protein; listed as SEQ ID NO: 8): 290 nM
- IC50 (HIV-1 tat protein): 420 nM
- CAT expression [1]: null phenotypes

Substance: HIV-1 TAR (UUU): full length HIV-1 TAR RNA of 59 residues prepared by transcription, wild type, UUU bulge (GGGUCUCUCUGGUUAGACCAGAUUUGAGCCUGGGAGCUCUCUGGCUAACUAGGGAACCC; unmodified RNA) [reference compound]
- Krel (59-mer) (tat protein; 32P-end labelled 18-mer annealed to 15-mer): 1.0
- IC50 (tat protein; 32P-end labelled 18-mer annealed to 15-mer 10 nM, competitor 0-120 nM): 18 nM
- Krel (59-mer) (tat protein; 32P-labeled 59-mer transcript 10 nM): 1.0
- IC50 (tat protein; 32P-labeled 59-mer transcript 10 nM, competitor 0-300 nM): 40 nM
- Krel (29 or 14 +17) (tat protein; relative to 14 +17 duplex, 32P-end labelled 18-mer annealed to 15-mer): 2.8
- KRel (ratio of D1/2 values for HIV-1 TAR and competitor RNA) (HIV-1 tat protein): 1.00
- IC50 (HIV-1 tat protein): 64 nM
- Units CAT activity/500 ng plasmid ([2]; Table 2, mutations in the U-rich bulge): 14,400 Units CAT activity/500 ng plas
- Units CAT activity/500 ng plasmid ([2]; Table 3, mutations in the stem surrounding the U-rich bulge): 5,600 Units CAT activity/500 ng plas

Substance: G28 to C28: TAR point mutation expected to disrupt the top of the TAR stem/loop structure (GGGUCUCUCUGGUUAGACCAGAUUUGACCCUGGGAGCUCUCUGGCUAACUAGGGAACCC; chemistry not given here)
- KRel (ratio of D1/2 values for HIV-1 TAR and competitor RNA) (HIV-1 tat protein): 0.09
- IC50 (HIV-1 tat protein): 680 nM
- trans-activation phenotype [3]: defective phenotype
- CAT expression [1]: null phenotypes
